# Columns and labels:
# [1] = system: ^14C-cholesterol absorption; test: In vivo testing of cholesterol absorption inhibitors (A); settings: procedure A, C57BL/6 female mice
# Experimental: In Vivo Testing of Cholesterol Absorption Inhibitors (A)
# C57BL/6 female mice were maintained on regular chow diet and housed in individual cages to collect faeces. Mice were fasted for 3 hours and then gavaged with vehicle or compound. Half an hour later the mice were gavaged with radiolabelled cholesterol. Six hours after the ^14C-cholesterol gavage blood samples were taken via the tail and plasma prepared to determine how much cholesterol were absorbed. 24 hours after the gavage of ^14C-cholesterol the mice were bled and plasma were prepared for analysis. Faeces were collected for 24 hours to assess absorption efficiency.
# [2] = Absorption in a Caco-2 cells model; assay type: in vitro ADME; settings: human
# Experimental: Absorption of the compounds of formula (I) was tested in a Caco-2 cells model (Gastroenterology 1989, 96, 736): […]
Papp [2] [×10⁻⁶ cm/s],SMILES,inhibition of ^14C-cholesterol absorption ([1]; administration of 0.2 mmol/kg by gavage) [%],inhibition of ^14C-cholesterol absorption ([1]; administration of 0.2 μmol/kg by gavage) [%]
0.12,"CC(C)(C)[C@@H](NC(=O)CNC(=O)COc1ccc([C@@H]2[C@@H](SCC(O)c3ccc(F)cc3)C(=O)N2c2ccc(F)cc2)cc1)C(=O)NCC(=O)O (single isomer, unassigned) [Example 6, N-{[4-((2R,3R)-1-(4-fluorophenyl)-3-{[(2R or S)-2-(4-fluorophenyl)-2-hydroxyethyl]thio}-4-oxoazetidin-2-yl)phenoxy]acetyl}glycyl-3-methyl-D-valylglycine]",49,–
–,"CC(C)(C)[C@@H](NC(=O)CNC(=O)COc1ccc([C@@H]2[C@@H](SCC(O)c3ccc(F)cc3)C(=O)N2c2ccc(F)cc2)cc1)C(=O)N[C@H](CO)C(=O)O (single isomer, unassigned) [Example 7, N-{[4-((2R,3R)-1-(4-fluorophenyl)-3-{[(2R or S)-2-(4-fluorophenyl)-2-hydroxyethyl]thio}-4-oxoazetidin-2-yl)phenoxy]acetyl}glycyl-3-methyl-D-valyl-D-serine]",–,46

# Reference: patent US20100152156A1, “2-Azetidinone Derivatives For The Treatment Of Hyperlipidaemic Diseases” (ASTRAZENECA AB, priority 2005, published 2010)
